Measurements from US20230123585A1, “COMPOSITIONS AND METHODS FOR TREATING OR PREVENTING CANCER USING DEUBIQUITINASE INHIBITORS” (The University of Chicago, priority 2020, published 2023).

What was measured:
ubiquitination of METTL3 = assay: Ubiquitination of METTL3 in A375 cells transfected with HA-ubiquitin (IP anti-METTL3, immunoblot anti-HA); assay type: cell-based, human; conditions: 10 μM MG-132 and PD0325901 for 8 h
Protocol: FIGS. 11A-11G: USP5 is Required for ERK-Mediated METTL3 Stabilization. (A) A375 cells transfected with HA-ubiquitin (ub) were treated with 10 μM MG-132 and MEK inhibitor PD0325901 for 8 h. The ubiquitination of METTL3 was detected by IP with anti-METTL3 and immunoblot with anti-HA. (B) After 8 h treatment with 10 μM PD0325901 with or without 10 μM MG-132, cell lysates from A375 cells were analyzed by immunoblot. (C) A375 cells were treated with various concentrations of PD0325901 for 1 h. Cell lysates were subjected to IP with METTL3 antibody followed by immunoblot. (D) 293T cells transfected as indicated were subjected to IP/immunoblot analysis. (E) Immunofluorescence analysis of myc-METTL3 (green) in mESC stable transfectants. DAPI (blue) was used to mark the nucleus. (F) Lysates of 293T cells transfected as indicated were subjected to IP with anti-Flag antibody followed by immunoblot. (G) Immunofluorescence analysis of 293T cells co-transfected with myc-METTL3 (green), Flag-USP5 (red) with or without constitutively active B-RAF.
FIGS. 14A-14I: Phosphorylation of the m^6A Methyltransferase Complex May Affect Tumorigenesis. […] (B) LC-MS/MS quantification of the m^6A/A ratio in mRNA of melanoma cell lines. (C) After 8 h treatment with 10 μM PD0325901 or 0.1 μM tramentib, cell lysates from HCT-116 cells were analyzed by immunoblot. […] The ubiquitination of METTL3 was detected by IP with anti-METTL3 and immunoblot with anti-HA. (F) After 8 hr treatment with 10 μM EOAI3402143 (EOAI) or 30 μM vialinin A, cell lysates from HCT-116 cells were analyzed by immunoblot. […] (I) LC-MS/MS quantification of the m^6A/A ratio in mRNA of breast cancer cell lines.
Immunoprecipitation, immunoblotting, and in vitro kinase assay. […] Primary antibodies were detected by HRP-linked secondary antibodies (Cell Signaling) together with SuperSignal West Pico Plus chemiluminescent substrate (Thermo Scientific) and imaged in a FluorChem R system (ProteinSimple).

mRNA m^6A in A375 cells = assay: LC-MS/MS quantification of the m^6A/A ratio in mRNA of A375 cells; assay type: cell-based, human; conditions: A375 melanoma cells, 48 h, 10 μM PD0325901 or 0.1 μM trametinib
Protocol: FIGS. 6A-6H: Phosphorylation of the m^6A Methyltransferase Complex May Affect Tumorigenesis. (A) Lysates of A375 stable transfectants harvested at different time points after treatment with cycloheximide (CHX) 10 μg/ml were analyzed by immunoblot. (B) LC-MS/MS quantification of the m^6A/A ratio in mRNA of A375 stable transfectants. (C) After 8 h treatment with 10 μM PD0325901 or 0.1 μM tramentib, cell lysates from A375 cells were analyzed by immunoblot. (D) LC-MS/MS quantification of the m^6A/A ratio in mRNA of A375 cells treated with 10 μM PD0325901 or 0.1 μM tramentib for 48 h. (E) After 8hr treatment with 10 μM EOAI3402143 (EOAI) or 30 μM vialinin A , cell lysates from A375 cells were analyzed by immunoblot. […] (H) LC-MS/MS quantification of the m^6A/A ratio in mRNA of SKBR3 and BT474 cells treated with 1 μM tucatinib and 1 μM lapatinib for 48 h. […]
LC-MS/MS quantification of m^6A in poly(A) RNA. mRNA was extracted from the total RNA using 2 rounds of the Dynabeads mRNA purification kit. […] The nucleosides were quantified by using the nucleoside-to-base ion mass transitions of 282 to 150 (m^6A) and 268 to 136 (A). Quantification was carried out by comparison with a standard curve obtained from pure nucleoside. The ratio of m^6A to A was calculated based on the calibrated concentrations (Liu et al., 2018).

## O=C(NOC[C@H](O)CO)c1ccc(F)c(F)c1Nc1ccc(I)cc1F [PD0325901]
Ubiquitination of METTL3
  ubiquitination of METTL3: increased
mRNA m^6A in A375 cells
  overall mRNA m^6A levels (m^6A/A ratio): reduce
